Experimental data from article PMC10635324, “A Multi-Site Phase I Trial of Veliparib with Standard Radiation and Temozolomide in Patients with Newly Diagnosed Glioblastoma Multiforme (GBM)” (Research Square, 2023).
“And” between values parts separate entries of the source, which are not always exact repeats. Equal values may be shown once. Read-outs that look alike come from different tables or passages of the source.

Tests used:
[1] = Plasma pharmacokinetics of veliparib, LC-MS/MS, noncompartmental analysis; type: in vivo, patients; settings: for Cmax: human, plasma, oral, 10 mg, read-out: Cmax, maximum drug concentration in plasma
Procedure: Patients received a single dose of veliparib one day prior to starting combination therapy with TMZ or RT/TMZ for PK testing after the first single dose as described below. Patients without disease progression, as evaluated by MRI 10-weeks after the initiation of veliparib therapy, received up to four maintenance cycles of the same dose of veliparib in the initial safety cohort or six cycles in phase I veliparib/RT/TMZ cohort. Veliparib was to be given BID for 7 days and TMZ 150–200 mg/m^2 QD for 5 days, repeated every 28 days, with an imaging evaluation after completing every second maintenance cycle.
Plasma samples were collected to define plasma concentration-time profiles. Samples were collected shortly before dosing and at 0.25, 0.5, 1, 2, 3, 4, 6, 8, and 24 hours after the first dose of six weeks of TMZ and again after achieving steady-state conditions on any day of week 3 of the six weeks (omitting the 24 hour specimen). Samples were analyzed by liquid chromatography-mass spectrometry (LC-MS)/mass spectrometry (MS), Agilent 410B Triple Quadrupole LC/MS system (Agilent Technologies, Inc., Santa Clara, CA).
The plasma concentration-time data for veliparib was analyzed by noncompartmental methods using model 200 for extravascular input in WinNonlin Professional version 5.0.1. Samples with concentrations below the LLQ of the assay were excluded. The maximum concentration of the drug achieved in plasma (Cmax) and the time that it occurred (tmax) were based upon the observed values following a given dose. Area under the plasma concentration-time curves for 8 h (AUC8) and 24 h (AUC24) after dosing were estimated using the log- linear trapezoidal algorithm. Routines provided in the Data Analysis ToolPak of Microsoft Excel 2003 (11.8231.8221) SP3, Professional Edition (Redmond, WA), were used for the descriptive statistics and statistical tests. Arithmetic averages and standard deviations were calculated for the time of the maximum drug concentration in plasma (tmax). Geometric means were calculated for all other pharmacokinetic variables. The jackknife technique was used to estimate the standard deviation of geometric means.

[2] = test system: patients with newly diagnosed glioblastoma; assay: Phase I dose-limiting toxicities / adverse events (CTCAE v.3.0); type: in vivo
Procedure: This was an open-label, multi-center, phase 1 study. The maximum tolerated dose (MTD) was a dose producing a dose-limiting-toxicity (DLT) rate at 33% or less. A modified 3 + 3 design with 6 patients per dose cohort was used due to 10 weeks long safety evaluation period that potentially 40–50% patient might drop-out study for early disease progression.
The initial safety group of up to 6 patients included patients who had recently completed standard concurrent RT/TMZ) were then treated with one cycle of low-dose veliparib 10 mg BID along with 6 weeks of once-a day (QD) temozolomide 75 mg/m2/d (no RT). Once this one cycle was complete, patients were permitted to transition to monthly cycles of standard adjuvant temozolomide 150–200 mg/m2/d for five consecutive days each month.
If safety was confirmed, then the phase I component including radiotherapy would proceed enrolling cohorts of 6 patients to pre-specified escalating dose levels of daily veliparib, ranging from 10 mg BID to 100 mg twice-daily BID daily along with TMZ (75 mg/m^2/d) for 6 weeks in conjunction with standard radiation 60 Gy in 30 fractions.The protocol specified that if excessive toxicity occurred, de-escalation could be introduced by joint decision of study PI, sponsor, and ABTC leadership to a choice of veliparib 10 mg daily, 10 mg every other day or 10 mg BID 1 week on/1 week off for the 6-week period.
DLTs were events considered possible or probably related to veliparib alone, veliparibib/TMZ or Veliparib/RT per CTCAE v.3.0 including: ≥ grade 3 nonhematological toxicities not resolving with anticonvulsants or steroid treatment excluding grade 3 nausea and dermatitis. Hematologic toxicity was considered dose limiting if there was 1) ANC ≤ 500/mm^3; 2) Platelets ≤ 25,000/mm^3; 3) Grade 3 toxicity that prevents administration of > 75% of the planned temozolomide doses for the first cycle; 4) interruption of treatment for > 14 days. All subjects were monitored for safety throughout the trial.

[3] = test system: patients with newly diagnosed glioblastoma; assay: Survival from the date of study enrollment; type: in vivo; settings: all patients on study
Description: All subjects were followed until death, and survival from the date of study enrollment was reported to evaluate for any unexpected adverse results.

[4] = parameters: method as in PMID 17473206; settings: rodent model; cited from earlier work
[5] = parameters: method as in PMID 17473206; settings: preclinical, oral; cited from earlier work
[6] = parameters: method as in PMID 19364967; settings: phase 0 clinical trial, oral; cited from earlier work
[7] = test system: patients with MGMT methylation; parameters: method as in doi:10.1200/JCO.2022.40.16_suppl.2001; settings: cited from earlier work
brain metastasis = test system: brain metastasis; parameters: method as in PMID 25682091; settings: Veliparib 40 mg BID or 200 mg BID added to whole brain radiotherapy; cited from earlier work
[8] = parameters: method as in PMID 28243955, PMID 28497258, PMID 30456480, PMID 27503200, PMID 21795476; settings: cited from earlier work
[9] = parameters: method as in PMID 26202595; settings: cited from earlier work
[10] = Single dose 10 mg Veliparib, n=16
[11] = Steady-state 10 mg BID Veliparib, week 3, n=18

## C[C@]1(c2nc3c(C(N)=O)cccc3[nH]2)CCCN1 [Veliparib]
[1]; BID dosing
  Accumulation for BID dosing: 56%
[1]; Single (initial) dose 10 mg Veliparib, n=16
  CL/F, apparent oral clearance: 27.0 ± 9.0 L/h and 27.0 ± 9.2 L/h
[1]; [10]
  t1/2,z apparent terminal phase half-life: 5.8 ± 0.9 h
  Cmax: 0.0503 ± 0.019 µg/mL
[1]; Single dose 10 mg Veliparib, n=16, geometric mean ± SD
  Cmin, minimum drug concentration in plasma: 0.0025 ± 0.0013 µg/mL
[1]; Steady-state 10 mg BID Veliparib, n=18
  CL/F, apparent oral clearance: 23.5 ± 10.4 L/h
[1]; [11]
  Cmin, minimum drug concentration in plasma: 0.0184 ± 0.0104 µg/mL
  Cmax: 0.0661 ± 0.0287 µg/mL
[1]; Steady-state 10 mg BID dosing
  Accumulation: 56%
[1]; veliparib 20 mg BID concurrently with daily temozolomide (so in the source)
  Peak and trough concentrations throughout six weeks of daily dosing: remains stable
[2]; 12 patients, veliparib 10 mg BID + TMZ + RT
  Patients with platelets <25,000/mm^3: 3 patients
[2]; human, in vivo, 6 weeks
  Anemia: 1 (4.2) n (%)
  Any adverse event (dose limiting, possibly related): 11 (45.8) n (%)
  Febrile neutropenia: 1 (4.2) n (%)
  Neutropenia: 2 (8.3) n (%)
  Pancytopenia: 1 (4.2) n (%)
  Subjects with ≥ 1 AE (Blood and Lymphatic Systemic Disorders): 9 (37.5) n (%)
  Thrombocytopenia: 7 (29.2) n (%)
[2]; in vivo
  Number of dose limiting toxicities (DLT): one
[2]; with TMZ and six weeks of standard radiation, even with 50% dose reductions
  Tolerable dose (maximum tolerated dose): a tolerable dose of veliparib could not be found
[3]
  Survival at 2 years: 25%
[3]; 95%CI: 8–16 months
  Median survival: 13 months
[4]
  Crossing of the blood brain barrier: cross the blood brain barrier
[5]
  Bioavailability: good bioavailability
[6]
  Bioavailability: good bioavailability
[7]; veliparib 40 mg BID each day of standard adjuvant TMZ (days 1–5) after concurrent RT/TMZ
  Hematologic toxicity (neutropenia, thrombocytopenia, and anemia): increased but acceptable hematologic toxicity
[7]; veliparib 40 mg BID each day of standard adjuvant TMZ (days 1–5)
  Survival benefit: without survival benefit
Brain metastasis
  Adverse events compared with placebo: no increase in adverse events
[8]
  Effect of TMZ co-administration on the clearance of veliparib: no effect
[9]
  Effect of veliparib coadministration on TMZ plasma exposures: does not affect
